For assay [1], the target named is T1, Inhibitor of nuclear factor kappa-B kinase subunit epsilon (Homo sapiens) (UniProt Q14164).
T1 sequence (whole entry): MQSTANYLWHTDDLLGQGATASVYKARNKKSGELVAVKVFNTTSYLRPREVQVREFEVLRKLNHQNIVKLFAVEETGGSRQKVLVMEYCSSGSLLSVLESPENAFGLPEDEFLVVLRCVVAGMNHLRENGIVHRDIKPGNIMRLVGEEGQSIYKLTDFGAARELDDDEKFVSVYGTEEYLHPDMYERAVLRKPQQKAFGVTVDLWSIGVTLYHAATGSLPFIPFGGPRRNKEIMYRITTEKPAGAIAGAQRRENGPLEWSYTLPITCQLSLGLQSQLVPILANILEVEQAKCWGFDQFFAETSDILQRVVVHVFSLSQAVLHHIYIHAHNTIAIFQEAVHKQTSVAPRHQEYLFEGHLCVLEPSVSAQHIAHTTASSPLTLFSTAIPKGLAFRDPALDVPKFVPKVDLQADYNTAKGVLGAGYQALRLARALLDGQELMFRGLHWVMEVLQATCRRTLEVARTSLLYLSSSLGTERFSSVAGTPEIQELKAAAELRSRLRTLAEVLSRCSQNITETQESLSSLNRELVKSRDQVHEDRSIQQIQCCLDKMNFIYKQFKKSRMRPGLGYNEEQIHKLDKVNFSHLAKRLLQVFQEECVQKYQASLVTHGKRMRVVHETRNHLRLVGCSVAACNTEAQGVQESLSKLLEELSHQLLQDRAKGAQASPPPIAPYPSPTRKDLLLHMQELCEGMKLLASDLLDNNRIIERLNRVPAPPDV
To be noted: at 1 µM.

Assay [2] has as its target T2, Serine/threonine-protein kinase TBK1 (Homo sapiens) (UniProt Q9UHD2).
T2 sequence (whole entry): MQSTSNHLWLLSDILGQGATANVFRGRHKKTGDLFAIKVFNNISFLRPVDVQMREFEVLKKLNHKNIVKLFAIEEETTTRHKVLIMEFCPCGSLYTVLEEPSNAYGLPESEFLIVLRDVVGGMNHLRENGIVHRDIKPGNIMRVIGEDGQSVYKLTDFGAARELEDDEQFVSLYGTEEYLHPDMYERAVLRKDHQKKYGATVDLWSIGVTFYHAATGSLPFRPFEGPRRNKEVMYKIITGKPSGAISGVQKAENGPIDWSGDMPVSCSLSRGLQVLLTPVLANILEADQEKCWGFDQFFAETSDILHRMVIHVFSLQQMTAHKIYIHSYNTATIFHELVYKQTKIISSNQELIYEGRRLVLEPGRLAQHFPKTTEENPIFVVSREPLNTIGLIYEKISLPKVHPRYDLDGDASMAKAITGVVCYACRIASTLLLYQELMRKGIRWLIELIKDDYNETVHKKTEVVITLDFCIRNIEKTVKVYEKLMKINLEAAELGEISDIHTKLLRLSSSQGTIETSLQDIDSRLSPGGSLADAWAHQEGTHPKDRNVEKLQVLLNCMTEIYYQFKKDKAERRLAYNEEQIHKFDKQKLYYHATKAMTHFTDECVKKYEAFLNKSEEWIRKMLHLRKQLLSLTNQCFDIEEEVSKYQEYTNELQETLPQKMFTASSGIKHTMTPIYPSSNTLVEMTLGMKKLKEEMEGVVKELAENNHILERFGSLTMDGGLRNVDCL
To be noted: at 1 µM.

Values joined by “and” are separate entries in the source; they are usually repeats but may differ in a detail not shown here. Equal values may be shown once.

Regarding `COc1cc(N2CCN(C(C)C)CC2)ccc1Nc1nc(Nc2cccc(F)c2C(=O)O)c2cc[nH]c2n1`, the inhibition in assay [1] is -1% and 0%; in assay [2], -3% and 0%.
For `CCCN1CCCC(c2ccc(Nc3nc(Nc4cc(F)ccc4C(N)=O)c4cc[nH]c4n3)c(OC)c2)C1` (stereo unspecified), the inhibition was 11% and 9% in assay [1]; 9% and 11% in assay [2].
Consider `C/C(Nc1ccc(S(N)(=O)=O)cc1)=C1/C(=O)Nc2ccccc21`, for which the inhibition is 5% and 6% in assay [1]; 11% and 14% in assay [2].
As for `CC1=C(C(=O)Nc2cc(Cl)c3[nH]ncc3c2)C(c2ccc(C(F)(F)F)cc2)CC(=O)N1` (stereo unspecified), the inhibition in assay [1] was 1% and 0%; in assay [2], -2% and 0%.
Turning to `N#Cc1c(NC(=O)CN2CCOCC2)sc2c1CCCC2`, the inhibition is -2% in assay [1] and -6% in assay [2].
Regarding `Cc1ccc(NC(=O)c2ccnc(N3CCCC3)c2)cc1-c1ccc(C(=O)NCC2CC2)cc1`, the inhibition in assay [1] was 5% and 6%; in assay [2], 33% and 39%.
On to `NC(=O)c1ccc2c(-c3ccnc(NCCCO)n3)c(-c3ccc(F)cc3)nn2c1`, for which the inhibition in assay [1] was 1% and 0%; in assay [2] it was 3% and 1%.
As for `N#Cc1ccc(Oc2nccc(-c3c(-c4ccc(F)cc4)ncn3C3CCNCC3)n2)cc1`, the inhibition in assay [1] was 2% and 4%; in assay [2], 8% and 3%.
With `CCn1c(-c2nonc2N)nc2c(C#CC(C)(C)O)nc(OC[C@H](N)c3ccccc3)cc21`, the inhibition in assay [1] is 36% and 35%; in assay [2], 8% and 11%.
Turning to `COc1ccc2c(-c3ccnc(Nc4cccc(OC(F)(F)F)c4)n3)cnn2n1`, the inhibition was 44% and 43% in assay [1]; 49% in assay [2].
With `Cc1cc(O)cc(C)c1/C=C/c1cncc(C(N)=O)c1`, the inhibition is -2% in assay [1]; -3% and -6% in assay [2].
`CS(=O)(=O)CCNCc1coc(-c2ccc3ncnc(Nc4ccc(OCc5ccccc5)cc4)c3c2)c1`: the inhibition in assay [1] was -1% and 0%; in assay [2], -1%.
For the compound `CN(C)CCOc1ccc(-c2cc(-c3ccc4c(c3)CCC4=NO)c(-c3ccncc3)o2)cc1`, the inhibition is 3% and 4% in assay [1]; 5% and 6% in assay [2].
Regarding `CS(=O)(=O)CCNCc1cc(-c2cc3c(Nc4ccc(OCc5cccc(F)c5)c(Cl)c4)ncnc3s2)cs1`, the inhibition in assay [1] is 0% and 2%; in assay [2], 0%.
On to `Fc1ccc(-c2ncn(C3CCNCC3)c2-c2ccnc(Oc3ccc(F)c(F)c3)n2)cc1`, for which the inhibition in assay [1] is -3% and -1%; in assay [2] it was 2% and 0%.
For `Cc1ccc(C(=O)NC2CC2)cc1-c1ccc2[nH]ncc2c1`, the inhibition was 1% and -2% in assay [1]; 0% and 2% in assay [2].
For `COc1cccc(-n2ncc3c(N/N=C/c4ccncc4)ncnc32)c1`, the inhibition was 6% and 4% in assay [1]; 13% and 14% in assay [2].
In the case of `CCOc1nccc2c1nc(-c1nonc1N)n2CC`, the inhibition was 2% and 0% in assay [1]; -2% and 0% in assay [2].
As to `NS(=O)(=O)c1cccc(-c2cc3ccncc3cc2OCc2ccccc2)c1`, the inhibition was -3% and -1% in assay [1]; -7% and -1% in assay [2].
As to `CCOc1ccc2c(-c3ccnc(Nc4cccc(C(F)(F)F)c4)n3)cnn2n1`, the inhibition was 45% in assay [1]; 55% and 52% in assay [2].
As for `O=C(O[C@H]1CN[C@H](C#Cc2cc3ncnc(Nc4ccc5c(ccn5Cc5cc(F)ccc5F)c4)c3s2)C1)N1CCOCC1`, the inhibition in assay [1] was 1% and -4%; in assay [2], 11% and 9%.
Regarding `COc1cc2ncn(-c3cc(OCc4cccs4)c(C(N)=O)s3)c2cc1OC`, the inhibition is 1% in assay [1]; 35% and 33% in assay [2].
In the case of `CC1=C(C(=O)Nc2ccc3[nH]ncc3c2)C(c2ccc(F)cc2)NC(=O)N1` (stereo unspecified), the inhibition in assay [1] is 2%; in assay [2], -2% and 0%.
Consider `O=C1Nc2ccc(I)cc2C1=Cc1cc(Br)c(O)c(Br)c1`, for which the inhibition was 3% and 2% in assay [1]; 3% in assay [2].
As to `O=C1Nc2ccccc2/C1=C/Nc1ccc(-n2cncn2)cc1`, the inhibition in assay [1] was 18%; in assay [2], 23% and 27%.
As for `CS(=O)(=O)CCNCc1nc(-c2ccc3ncnc(Nc4ccc(F)c(Cl)c4)c3c2)cs1`, the inhibition in assay [1] is -3% and -1%; in assay [2], 1% and -2%.
With `NS(=O)(=O)c1cccc(N/C=C2\C(=O)Nc3ccccc32)c1`, the inhibition was 22% and 26% in assay [1]; 31% and 38% in assay [2].
Consider `Cc1ccc2c(-c3ccnc(Nc4ccc5c(c4)OCCO5)n3)c(-c3ccc(C(F)(F)F)cc3)nn2n1`, for which the inhibition was 0% and -3% in assay [1]; -5% and 1% in assay [2].

The inhibition is the relative decrease from the control value, in per cent.

For the origin of these results see ChEMBL document CHEMBL2007661, “Compounds: GSK PKIS; Assays: UNC Frye lab” (2012).
